Test results: patent US5807535A, “Metal complexes of hydroxyaryl containing aminocarboxylic acid chelating agents” (Australian Nuclear Science & Technology Organisation, priority 1992, dated 1998)
Read-outs that look alike come from different tables or passages of the source.

Columns and labels:
[1] = Biodistribution of 67Ga complexes in mice; type: in vivo, balb/c mice
Protocol: To ligand (50 μL, 10 mg/mL, 0.2 M NaOAc, […]) was added ^67 Ga citrate (18.5 MBq) and the resultant mixture diluted to 1 mL (0.2 M NaOAc, pH 7). The pH was adjusted to 12 with 1 M NaOH (20 μL) and heated at 40° C. for 40 min. The final volume was adjusted (to 5 mL) with saline and sterilised by filtering through a 0.22 μm filter.
Each animal was injected via tail vein with ^67 Ga complex (100 μL, ~3.7×10^5 Bq). Animals were sacrificed at various time intervals (5 animals per time point/6 time points). Data are illustrated in FIG. 26-30 and in Tables 13-17.
Each ^67 Ga-ligand complex has been evaluated in balb/c mice. […] (see FIG. 26-30).

[2] = Biodistribution of 99mTc complexes in rats; type: in vivo, Australian Albino Wistar Rats; conditions: for tissue uptake at 0.5 min / tissue uptake at 1 min / tissue uptake at 0.05 h / tissue uptake at 5 min / tissue uptake at 10 min: rat; for tissue uptake at 0.5 min: 30 sec
Protocol: A typical method of radiolabelling of the chelator was achieved by dissolving the chelator in a basic solution of saline. The pH was then adjusted to approx. 6 with HCl. Excess stannous chloride was added to the resultant solution followed by one equivalent volume of sodium ^99m TcO4 (10-50 mCi/ml). Final concentration of the chelator was approx. 1 mg/ml. The efficacy of labelling was determined by ITLC-SG. For each product only one main radiochemical species was observed. Each complex was diluted to 15 μCi/100 μl with saline. […] (See FIGS. 1A and 1B).
Selected data from biodistribution results of technetium-99m complexes of No. 1, No. 2 and No 4 in the liver, kidney and blood at 3 minutes is tabulated below.

[3] = blood, rats, read-out: biodistribution blood
[4] = bone, rats, read-out: biodistribution bone
[5] = brain, rats, read-out: biodistribution brain
[6] = eyes, rats, read-out: biodistribution eyes
[7] = heart, rats, read-out: biodistribution heart
[8] = kidneys, rats, read-out: biodistribution kidneys
[9] = liver, rats, read-out: biodistribution liver
[10] = lungs, rats, read-out: biodistribution lungs
[11] = muscle, rats, read-out: biodistribution muscle
[12] = pancreas, rats, read-out: biodistribution pancreas
[13] = skin, rats, read-out: biodistribution skin
[14] = spleen, rats, read-out: biodistribution spleen
[15] = stomach, rats, read-out: biodistribution stomach
[16] = tail, rats, read-out: biodistribution tail
[17] = thymus, rats, read-out: biodistribution thymus
[18] = thyroid, rats, read-out: biodistribution thyroid
[19] = total git, rats, read-out: biodistribution tot GIT

For `CC(C)(C)c1ccc(O)c(NC(=O)CN(CCN(CC(=O)O)CC(=O)Nc2cc(C(C)(C)C)ccc2O)CC(=O)O)c1` [Compound 4], the biodistribution bone ([1]; 1 min) was 3.20 % ID, the biodistribution kidney ([1]; 1 min) was 6.91 % ID and the biodistribution liver ([1]; 1 min) was 39.06 % ID. The biodistribution muscle ([1]; 1 min) was 11.34 % ID, the biodistribution skin ([1]; 1 min) was 11.94 % ID and the biodistribution spleen ([1]; 1 min) was 0.15 % ID. For the same compound, the biodistribution bone ([1]; 3 min) was 1.31 % ID, the biodistribution kidney ([1]; 3 min) was 2.12 % ID and the biodistribution liver ([1]; 3 min) was 43.23 % ID. The biodistribution muscle ([1]; 3 min) was 5.08 % ID, the biodistribution skin ([1]; 3 min) was 8.12 % ID and the biodistribution spleen ([1]; 3 min) was 0.04 % ID. For the same compound, the biodistribution bone ([1]; 5 min) was 0.98 % ID, the biodistribution kidney ([1]; 5 min) was 1.59 % ID and the biodistribution liver ([1]; 5 min) was 39.61 % ID. It also gave a biodistribution muscle ([1]; 5 min) of 4.29 % ID, a biodistribution skin ([1]; 5 min) of 8.22 % ID and a biodistribution spleen ([1]; 5 min) of 0.03 % ID. It also gave a biodistribution bone ([1]; 10 min) of 0.20 % ID, a biodistribution kidney ([1]; 10 min) of 0.43 % ID and a biodistribution liver ([1]; 10 min) of 8.29 % ID. For the same compound, the biodistribution muscle ([1]; 10 min) was 0.65 % ID, the biodistribution skin ([1]; 10 min) was 2.92 % ID and the biodistribution spleen ([1]; 10 min) was 0.00 % ID. For the same compound, the biodistribution bone ([1]; 30 min) was 0.13 % ID, the biodistribution kidney ([1]; 30 min) was 0.17 % ID and the biodistribution liver ([1]; 30 min) was 1.06 % ID. For the same compound, the biodistribution muscle ([1]; 30 min) was 0.32 % ID, the biodistribution skin ([1]; 30 min) was 0.18 % ID and the biodistribution spleen ([1]; 30 min) was 0.00 % ID. It also gave a biodistribution kidney ([1]; 120 min) of 0.07 % ID, a biodistribution liver ([1]; 120 min) of 0.29 % ID and a biodistribution muscle ([1]; 120 min) of 0.21 % ID. The biodistribution skin ([1]; 120 min) was 0.15 % ID, the biodistribution spleen ([1]; 120 min) was 0.01 % ID and the hepatobiliary passage ([2]; Tables 2 and 4) was “specifically traverse the hepatobiliary system”. For the same compound, the tissue uptake at 0.5 min [2, 3] was 5.84 %ID/g, the tissue uptake at 1 min [2, 3] was 3.96 %ID/g and the tissue uptake at 0.05 h ([2]; blood, rats, 3 minutes, selected data, read-out: Blood) was 1.71 %ID/g. It also gave a tissue uptake at 5 min [2, 3] of 1.33 %ID/g, a tissue uptake at 10 min [2, 3] of 0.99 %ID/g and a tissue uptake at 0.5 min [2, 4] of 0.61 %ID/g. The tissue uptake at 1 min [2, 4] was 0.54 %ID/g, the tissue uptake at 0.05 h ([2]; bone, rats, 3 min, read-out: biodistribution bone) was 0.32 %ID/g and the tissue uptake at 5 min [2, 4] was 0.26 %ID/g. For the same compound, the tissue uptake at 10 min [2, 4] was 0.19 %ID/g, the tissue uptake at 0.5 min [2, 5] was 0.43 %ID/g and the tissue uptake at 1 min [2, 5] was 0.26 %ID/g. The tissue uptake at 0.05 h ([2]; brain, rats, 3 min, read-out: biodistribution brain) was 0.12 %ID/g, the tissue uptake at 5 min [2, 5] was 0.08 %ID/g and the tissue uptake at 10 min [2, 5] was 0.06 %ID/g. For the same compound, the tissue uptake at 0.5 min [2, 6] was 0.22 %ID/g, the tissue uptake at 1 min [2, 6] was 0.19 %ID/g and the tissue uptake at 0.05 h ([2]; eyes, rats, 3 min, read-out: biodistribution eyes) was 0.15 %ID/g. It also gave a tissue uptake at 5 min [2, 6] of 0.13 %ID/g, a tissue uptake at 10 min [2, 6] of 0.16 %ID/g and a tissue uptake at 0.5 min [2, 7] of 1.78 %ID/g. For the same compound, the tissue uptake at 1 min [2, 7] was 1.26 %ID/g, the tissue uptake at 0.05 h ([2]; heart, rats, 3 min, read-out: biodistribution heart) was 0.65 %ID/g and the tissue uptake at 5 min [2, 7] was 0.48 %ID/g. The tissue uptake at 10 min [2, 7] was 0.36 %ID/g, the tissue uptake at 0.05 h ([2]; kidney, rats, 3 minutes, selected data, read-out: Kidney) was 4.54 %ID/g and the tissue uptake at 0.5 min [2, 8] was 5.57 %ID/g. The tissue uptake at 1 min [2, 8] was 4.86 %ID/g, the tissue uptake at 0.05 h ([2]; kidneys, rats, 3 min, read-out: biodistribution kidneys) was 4.54 %ID/g and the tissue uptake at 5 min [2, 8] was 3.89 %ID/g. It also gave a tissue uptake at 10 min [2, 8] of 2.33 %ID/g, a tissue uptake at 0.5 min [2, 9] of 6.83 %ID/g and a tissue uptake at 1 min [2, 9] of 8.03 %ID/g. For the same compound, the tissue uptake at 0.05 h ([2]; liver, rats, 3 minutes, selected data, read-out: Liver) was 7.89 %ID/g, the tissue uptake at 5 min [2, 9] was 7.39 %ID/g and the tissue uptake at 10 min [2, 9] was 4.9 %ID/g. For the same compound, the tissue uptake at 0.5 min [2, 10] was 2.37 %ID/g, the tissue uptake at 1 min [2, 10] was 1.67 %ID/g and the tissue uptake at 0.05 h ([2]; lungs, rats, 3 min, read-out: biodistribution lungs) was 1 %ID/g. For the same compound, the tissue uptake at 5 min [2, 10] was 0.66 %ID/g, the tissue uptake at 10 min [2, 10] was 0.53 %ID/g and the tissue uptake at 0.5 min [2, 11] was 0.36 %ID/g. It also gave a tissue uptake at 1 min [2, 11] of 0.29 %ID/g, a tissue uptake at 0.05 h ([2]; muscle, rats, 3 min, read-out: biodistribution muscle) of 0.22 %ID/g and a tissue uptake at 5 min [2, 11] of 0.18 %ID/g. The tissue uptake at 10 min [2, 11] was 0.13 %ID/g, the tissue uptake at 0.5 min [2, 12] was 0.9 %ID/g and the tissue uptake at 1 min [2, 12] was 0.69 %ID/g. For the same compound, the tissue uptake at 0.05 h ([2]; pancreas, rats, 3 min, read-out: biodistribution pancreas) was 0.55 %ID/g, the tissue uptake at 5 min [2, 12] was 0.32 %ID/g and the tissue uptake at 10 min [2, 12] was 0.39 %ID/g. It also gave a tissue uptake at 0.5 min [2, 13] of 0.53 %ID/g, a tissue uptake at 1 min [2, 13] of 0.51 %ID/g and a tissue uptake at 0.05 h ([2]; skin, rats, 3 min, read-out: biodistribution skin) of 0.46 %ID/g. For the same compound, the tissue uptake at 5 min [2, 13] was 0.37 %ID/g, the tissue uptake at 10 min [2, 13] was 0.36 %ID/g and the tissue uptake at 0.5 min [2, 14] was 0.93 %ID/g. The tissue uptake at 1 min [2, 14] was 0.8 %ID/g, the tissue uptake at 0.05 h ([2]; spleen, rats, 3 min, read-out: biodistribution spleen) was 0.42 %ID/g and the tissue uptake at 5 min [2, 14] was 0.32 %ID/g. The tissue uptake at 10 min [2, 14] was 0.27 %ID/g, the tissue uptake at 0.5 min [2, 15] was 1.04 %ID/g and the tissue uptake at 1 min [2, 15] was 0.95 %ID/g. For the same compound, the tissue uptake at 0.05 h ([2]; stomach, rats, 3 min, read-out: biodistribution stomach) was 3.09 %ID/g, the tissue uptake at 5 min [2, 15] was 2.71 %ID/g and the tissue uptake at 10 min [2, 15] was 3.8 %ID/g. It also gave a tissue uptake at 0.5 min [2, 16] of 1.03 %ID/g, a tissue uptake at 1 min [2, 16] of 0.53 %ID/g and a tissue uptake at 0.05 h ([2]; tail, rats, 3 min, read-out: biodistribution tail) of 0.39 %ID/g. For the same compound, the tissue uptake at 5 min [2, 16] was 1.23 %ID/g, the tissue uptake at 10 min [2, 16] was 0.32 %ID/g and the tissue uptake at 0.5 min [2, 17] was 0.66 %ID/g. The tissue uptake at 1 min [2, 17] was 0.49 %ID/g, the tissue uptake at 0.05 h ([2]; thymus, rats, 3 min, read-out: biodistribution thymus) was 0.31 %ID/g and the tissue uptake at 5 min [2, 17] was 0.22 %ID/g. For the same compound, the tissue uptake at 10 min [2, 17] was 0.19 %ID/g, the tissue uptake at 0.5 min [2, 18] was 3.49 %ID/g and the tissue uptake at 1 min [2, 18] was 2.28 %ID/g. For the same compound, the tissue uptake at 0.05 h ([2]; thyroid, rats, 3 min, read-out: biodistribution thyroid) was 1.11 %ID/g, the tissue uptake at 5 min [2, 18] was 0.89 %ID/g and the tissue uptake at 10 min [2, 18] was 0.79 %ID/g. It also gave a tissue uptake at 0.5 min [2, 19] of 0.61 %ID/g, a tissue uptake at 1 min [2, 19] of 0.74 %ID/g and a tissue uptake at 0.05 h ([2]; total git, rats, 3 min, read-out: biodistribution tot GIT) of 1.59 %ID/g. The tissue uptake at 5 min [2, 19] was 2.62 %ID/g, the tissue uptake at 10 min [2, 19] was 5.16 %ID/g and the tissue uptake at 10 min ([2]; urine, rats, read-out: biodistribution urine) was 0.08 %ID/g. The “liver versus kidney uptake” value ([2]; rats) was “preference for the liver uptake as opposed to the kidney”, the biodistribution blood ([2]; rats, 3 min) was 1.71 % Injected dose per gram and the biodistribution liver ([2]; rats, 3 min) was 7.89 % Injected dose per gram.
